Values quoted from earlier work in US8053446B2, “Cyanoguanidine compounds” (Leo Pharma A/S, priority 2004, dated 2011).

What was measured:
[1] = test system: normal human endothelial cells
human tumour cells = conditions: nude mice transplanted with human tumour cells; also against tumour cells resistant to conventional anticancer drugs such as paclitaxel

N#CNC(=Nc1ccncc1)NCCCCCCOc1ccc(Cl)cc1 [N-(6-(4-chlorophenoxy)hexyl)-N′-cyano-N″-(4-pyridyl)guanidine]
antiproliferative activity [1]: considerably less antiproliferative activity | antitumour activity (human tumour cells): substantial antitumour activity
